Experimental data taken from patent publication US20180352814A1 (priority 2015, published 2018).

Experiments:
Type in all cases: in vivo
[1] = tested on: tomato late blight fungus (Phytophthora infestans); settings: 500 ppm foliage spray; tomato variety PATIO; inoculated 1 day after spraying
[2] = tested on: soybean frogeye leaf spot (Cercospora sojina) fungus; test: Test Example 15: Control Test on Soybean Frogeye Leaf Spot (Cercospora sojina); settings: 200 ppm foliage spray 5 days after inoculation; soybean cultivar TACHINAGAHA
Excerpt: (§1) The non-treatment in Test Examples 5 to 20 means that foliage application of a mixture of a preparation containing the present compound and water was not performed.
Control Test on Soybean Frogeye Leaf Spot (Cercospora sojina)
Each of plastic pots was filled with soil and soybean (cultivar: TACHINAGAHA) was sowed and grown in a greenhouse for 13 days. Thereafter, an aqueous suspension containing spores of soybean frogeye leaf spot (Cercospora sojina) fungus was sprayed to inoculate the spores. After inoculation, the soybean was at first left to stand in a greenhouse at 23° C. in the daytime under high humidity condition for 4 days, and cultivated in a greenhouse at 23° C. for 1 day. Then, the present compound 11 formulated in accordance with the method mentioned in Formulation Example 6 was mixed with water so as to adjust the concentration to 200 ppm, and the mixture was sprayed over stems and leaves of the soybean so that it sufficiently adhered to the surface of the leaves of the soybean. After spraying, the soybean was air-dried and cultivated in a greenhouse at 24° C. during the day and 20° C. at night for 21 days, and then the area of lesion spots was investigated.

[3] = tested on: cucumber powdery mildew fungus (Sphaerotheca fuliginea); test: Test Example 20: Control Test on Cucumber Powdery Mildew (Sphaerotheca fuliginea); settings: 200 ppm foliage spray; cucumber cultivar SAGAMI HANJIRO; inoculated 1 day after spraying
Excerpt: as §1
Control Test on Cucumber Powdery Mildew (Sphaerotheca fuliginea)
Each of plastic pots was filled with soil and cucumber (cultivar; SAGAMI HANJIRO) was sowed and grown in a greenhouse for 12 days. Then, the present compound 41 formulated in accordance with the method mentioned in Formulation Example 6 was mixed with water so as to adjust the concentration to 200 ppm, and the mixture was sprayed over stems and leaves of the cucumber so that it sufficiently adhered to the surface of the leaves of the cucumber. After spraying, the […] was air-dried. After the cucumber was left to stand in a greenhouse at 24° C. during the day and 20° C. at night for 1 day, the spores of the cucumber seedling (cultivar; SAGAMI HANJIRO) infected by cucumber powdery mildew fungus were sprinkling-inoculated. After inoculation, the cucumber was cultivated in a greenhouse at 24° C. during the day and 20° C. at night for 8 days, and then the area of lesion spots was investigated.

[4] = tested on: soybean rust fungus (Phakopsora pachyrhizi); test: Test Example 9: Control Test on Soybean Rust (Phakopsora pachyrhizi), spraying after inoculation; settings: 200 ppm foliage spray 3 days after inoculation; soybean cultivar KUROSENGOKU
Excerpt: as §1
(§2) Control Test on Soybean Rust (Phakopsora pachyrhizi)
Each of plastic pots was filled with soil and soybean (cultivar: KUROSENGOKU) was sowed and grown in a greenhouse for 10 days. Thereafter, an aqueous suspension containing spores of soybean rust fungus was sprayed to inoculate the spores. After inoculation, the soybean was at first left to stand in a greenhouse at 23° C. in the daytime and 20° C. at night under high humidity condition for 1 day and cultivated in a greenhouse at room temperature for 2 days. Then, the present compound 1 to 9, 11 to 23, 26 to 33, 35 to 41, or 44 formulated in accordance with the method mentioned in Formulation Example 6 was mixed with water so as to adjust the concentration to 200 ppm, and the mixture was sprayed over stems and leaves of the soybean so that it sufficiently adhered to the surface of the leaves of the soybean. After spraying, the soybean was air-dried and cultivated in a greenhouse for 8 days, and then the area of lesion spots was investigated.

[5] = tested on: soybean rust fungus (Phakopsora pachyrhizi); test: Test Example 10: Control Test on Soybean Rust (Phakopsora pachyrhizi), spraying before inoculation; settings: 200 ppm foliage spray; soybean cultivar KUROSENGOKU; inoculated 4 days after spraying
Excerpt: as §1, §2
Each of plastic pots was filled with soil and soybean (cultivar: KUROSENGOKU) was sowed and grown in a greenhouse for 13 days. Then, the present compound 1 to 9, 11 to 21, 29 to 37, or 44 formulated in accordance with the method mentioned in Formulation Example 6 was mixed with water so as to adjust the concentration to 200 ppm, and the mixture was sprayed over stems and leaves so that it sufficiently adhered to the surface of the leaves of the soybean. After spraying, the soybean was air-dried. After 4 days, an aqueous suspension containing spores of soybean rust fungus was sprayed to inoculate the spores. After inoculation, the soybean was at first left to stand in a greenhouse at 23° C. in the daytime and 20° C. at night under high humidity condition for 1 day, and then cultivated in a greenhouse for 10 days, and the area of lesion spots was investigated. As a result, the area of lesion spots on the soybean treated with the present compound 1 to 9, 11 to 21, 29 to 37, or 44 was 30% or less of that on a non-treated soybean.

Compound: CCOCCNC(=O)Oc1ccc(-c2noc(C(F)(F)F)n2)cc1 [compound 9]
- area of lesion spots on the treated tomato relative to that on a non-treated tomato [1]: ≤ 30%

Compound: COCCN(C)C(=O)Oc1ccc(-c2noc(C(F)(F)F)n2)cc1F [compound 11]
- area of lesion spots on the treated soybean relative to that on a non-treated soybean [2]: ≤ 30%

Compound: CC1(C(=O)Nc2ccc(-c3noc(C(F)(F)F)n3)cc2)CC1 [compound 41]
- area of lesion spots on the treated cucumber relative to that on a non-treated cucumber [3]: ≤ 30%

Compound: O=C(Oc1ccc(-c2noc(C(F)(F)F)n2)cc1)C1CCCCC1 [compound 44]
- area of lesion spots on the treated soybean relative to that on a non-treated soybean [4]: ≤ 30%
- area of lesion spots on the treated soybean relative to that on a non-treated soybean [5]: ≤ 30%
